Assay results: patent publication US10221163B2 (priority 2015, dated 2019)
Counter-ions that a name gives are not always drawn. Like-named read-outs stand apart in the source and are kept apart here.

Assays:
[1] = system: Pseudomonas aeruginosa efflux+ (MB9798), IMP-1; type: cell-based; set-up: Concentration of metallo-β-lactamase inhibitor which restores susceptibility of efflux + (MB9798) strain to imipenem: unit not given here; conditions: C, D serine β-lactamase inhibitor closely related to relebactam; for P. aeruginosa expressing IMP-1, efflux + (MB9798) MITC95: concentration restoring susceptibility to imipenem at 2 μg/mL in the presence of a class A; for Concentration of metallo-β-lactamase inhibitor which restores susceptibility of efflux + (MB9798) strain to imipenem: imipenem at 2 μg/mL, in the presence of a class A
In short: (§1)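 P. aeruginosa PAO1-derived IMP-1 strains, efflux+ MB9798 and efflux− MB9799, tested by standard microbroth MIC with imipenem and/or ceftazidime fixed, usually at CLSI breakpoint, plus fixed class A/C β-lactamase inhibitor against AmpC. Inhibitor titrated; concentration restoring susceptibility recorded; MB9798/MB9799 fold difference indicates efflux.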

[2] = system: Klebsiella pneumoniae expressing VIM-1 (IHMA599644); type: cell-based; conditions: for Klebsiella pneumoniae expressing VIM-1 (IHMA599644) MITC95: with imipenem 1 μg/ml, 95% inhibition of bacterial growth; for Klebsiella pneumoniae MITC95: VIM-1 strain IHMA599644, with imipenem 1 μg/ml, 95% inhibition of growth
In short: (§2)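 Growth by absorbance after 22–24 h at 35°C defined the read-out, with imipenem fixed at 1 μg/ml alongside compound. Inocula came from overnight blood-agar colonies at 35°C, resuspended in saline and diluted 1:100 in 1.1×CAMHB.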

[3] = system: Escherichia coli expressing NDM-1 (CLB30005, CLB30016); type: cell-based; conditions: with imipenem 1 μg/ml; for Escherichia coli expressing NDM-1 (CLB30016) MITC95: 95% inhibition of bacterial growth; for Escherichia coli MITC95: NDM-1 strain, 95% inhibition of growth
In short: as §2

[4] = system: Serratia marcescens expressing IMP-1 (CL5741); type: cell-based; conditions: for Serratia marcescens expressing IMP-1 (CL5741) MITC95: with imipenem 1 μg/ml, 95% inhibition of bacterial growth; for Serratia marcescens MITC95: IMP-1 strain CL5741, with imipenem 1 μg/ml, 95% inhibition of growth
In short: as §2

[5] = system: Pseudomonas aeruginosa MB9798 vs MB9799
In short: as §1

VIM-1 = VIM-1 (Pseudomonas aeruginosa (strain ATCC 15692 / DSM 22644 / CIP 104116 / JCM 14847 / LMG 12228 / 1C / PRS 101 / PAO1), UniProt A0A0F7KYQ8); assay: biochemical; conditions: CCF2-FA substrate, 30 pM enzyme, 2 hours at 25° C.
In short: (§3)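 Semi-log dose-response curves, fitted with a 4-parameter model, gave IC50s. The underlying signal was CCF2-FA fluorescence following 2 hours at 25° C with enzyme, substrate and inhibitor combined.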

[6] = system: Pseudomonas aeruginosa efflux− (MB9799), IMP-1; type: cell-based; conditions: C, D serine β-lactamase inhibitor closely related to relebactam; for P. aeruginosa expressing IMP-1, efflux − (MB9799) MITC95: concentration restoring susceptibility to imipenem at 2 μg/mL in the presence of a class A; for Concentration of metallo-β-lactamase inhibitor which restores susceptibility of efflux − (MB9799) strain to imipenem: imipenem at 2 μg/mL, in the presence of a class A
In short: as §1

IMP-1 = IMP-1 (Serratia marcescens, UniProt P52699); assay: biochemical; type: biochemical; conditions: fluorescence assay, CCF2-FA substrate, 2 pM enzyme, 2 hours at 25° C.; read-out: IMP-1 IC50
Chain of IMP-1 (P52699 whole entry, looked up, species assumed): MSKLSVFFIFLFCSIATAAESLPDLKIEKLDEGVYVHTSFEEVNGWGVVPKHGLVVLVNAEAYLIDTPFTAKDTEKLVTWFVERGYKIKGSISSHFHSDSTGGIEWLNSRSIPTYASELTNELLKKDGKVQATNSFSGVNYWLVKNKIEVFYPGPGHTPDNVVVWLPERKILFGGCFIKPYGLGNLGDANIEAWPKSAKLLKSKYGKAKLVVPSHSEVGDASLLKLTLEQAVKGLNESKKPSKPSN
In short: as §3

NDM-1 = NDM-1 (Klebsiella pneumoniae, UniProt C7C422); assay: biochemical; type: biochemical; conditions: fluorescence assay, CCF2-FA substrate, 1 pM enzyme, 2 hours at 25° C.; read-out: NDM-1 IC50
Chain of NDM-1 (C7C422 whole entry, looked up, species assumed): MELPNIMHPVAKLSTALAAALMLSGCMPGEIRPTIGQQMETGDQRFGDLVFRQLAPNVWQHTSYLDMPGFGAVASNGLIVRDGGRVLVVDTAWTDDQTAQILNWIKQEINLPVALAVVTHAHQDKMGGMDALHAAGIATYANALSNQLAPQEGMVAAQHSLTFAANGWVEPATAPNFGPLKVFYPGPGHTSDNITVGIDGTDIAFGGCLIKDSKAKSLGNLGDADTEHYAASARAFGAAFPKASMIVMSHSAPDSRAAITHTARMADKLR
In short: as §3

[7] = ratio MITC95 PA_9798/MITC95 PA_9799
[8] = fluorescence assay, read-out: VIM-1 IC50
[9] = fold difference between efflux+ (MB9798) and efflux− (MB9799) strains, imipenem at 2 μg/mL

SMILES	P. aeruginosa expressing IMP-1, efflux + (MB9798) MITC95 [1] [µM]	Klebsiella pneumoniae expressing VIM-1 (IHMA599644) MITC95 [2] [µM]	Escherichia coli expressing NDM-1 (CLB30016) MITC95 [3] [µM]	Serratia marcescens expressing IMP-1 (CL5741) MITC95 [4] [µM]	Efflux ratio [5, 7]	IC50 (VIM-1; [8]) [nM]	P. aeruginosa expressing IMP-1, efflux − (MB9799) MITC95 [6] [µM]	IC50 (IMP-1) [nM]	IC50 (NDM-1) [nM]	Concentration of metallo-β-lactamase inhibitor which restores susceptibility of efflux + (MB9798) strain to imipenem [1]	Klebsiella pneumoniae MITC95 [2] [µM]	Escherichia coli MITC95 [3] [µM]	Serratia marcescens MITC95 [4] [µM]	Efflux ratio [5, 9]	Concentration of metallo-β-lactamase inhibitor which restores susceptibility of efflux − (MB9799) strain to imipenem [6]	IC50 (VIM-1; VIM-1 IC50, fluorescence assay) [nM]
Nc1nc2c(-c3ccc(S(=O)(=O)NCC4CCC(=O)N4)c(S(N)(=O)=O)c3-c3nnn[nH]3)cccc2s1 (stereo not drawn) [Example 19, 4-(2-amino-1,3-benzothiazol-4-yl)-N1-[(5-oxopyrrolidin-2-yl)methyl]-3-(1H-tetrazol-5-yl)benzene-1,2-disulfonamide]	6.25	25	50	6.25	1.00	0.335	6.25	0.486	0.0953							
Nc1nc2c(-c3ccc(S(=O)(=O)N4CCC(CO)CC4)c(S(N)(=O)=O)c3-c3nnn[nH]3)cccc2s1 [Example 25, 3-(2-amino-1,3-benzothiazol-4-yl)-6-{[4-(hydroxymethyl)piperidin-1-yl]sulfonyl}-2-(1H-tetrazol-5-yl)benzenesulfonamide]	50	25	25	6.25	16.00	4.52	3.125	2.24	3.02							
NC[C@H](CO)NS(=O)(=O)c1ccc(-c2ccc(N)nc2)c(-c2nn[nH]n2)c1S(N)(=O)=O [Example 408]						0.394		0.684	0.421	1.563	3.125	0.09766	0.7813	1.00	1.563	
Nc1nc2c(-c3ccc(S(=O)(=O)NC[C@H]4CNCCN4)c(S(N)(=O)=O)c3-c3nn[nH]n3)cccc2[nH]1 [Example 314, (R)-4-(2-amino-1H-benzo[d]imidazol-4-yl)-N1-(piperazin-2-ylmethyl)-3-(2H-tetrazol-5-yl)benzene-1,2-disulfonamide]	0.7813				1.00	0.114	0.7813	0.485	0.0326		1.563	0.7813	1.563			
NCc1nc2c(-c3ccc(S(=O)(=O)NC[C@H](O)CN)c(S(N)(=O)=O)c3-c3nn[nH]n3)cccc2s1 [Example 300, (R)—N1-(3-amino-2-hydroxypropyl)-4-(2-(aminomethyl)benzo[d]thiazol-4-yl)-3-(2H-tetrazol-5-yl)benzene-1,2-disulfonamide]	0.7813				1.00		0.7813	0.318	0.0703		1.563	1.563	1.563			0.0678
CC1(NS(=O)(=O)c2ccc(-c3cccc4[nH]c(N)nc34)c(-c3nn[nH]n3)c2S(N)(=O)=O)CNC1 [Example 257]	0.7813				1.00		0.7813	0.642	0.033		0.7813	0.3906	0.7813			0.157
COC(=O)[C@H]1C[C@@H](NS(=O)(=O)c2ccc(-c3cccc4sc(N)nc34)c(-c3nnn[nH]3)c2S(N)(=O)=O)CN1 [Example 128, Methyl (2R,4R)-4-((4-(2-aminobenzo[d]thiazol-4-yl)-2-sulfamoyl-3-(1H-tetrazol-5-yl)phenyl)sulfonamido)pyrrolidine-2-carboxylate]	6.25	12.5	3.125	6.25	1.00		6.25	0.177	0.0443							0.199
NC[C@H](O)CNS(=O)(=O)c1ccc(-c2cnc(N)c(F)c2)c(-c2nn[nH]n2)c1S(N)(=O)=O [Example 469, (S)-N1-(3-amino-2-hydroxypropyl)-4-(6-amino-5-fluoropyridin-3-yl)-3-(2H-tetrazol-5-yl)benzene-1,2-disulfonamide]								0.554	0.153	0.7813	3.125	1.563	3.125	1.00	0.7813	0.0868
NS(=O)(=O)c1c(S(=O)(=O)N[C@@H]2CCNC2)ccc(-c2cccc3[nH]nnc23)c1-c1nn[nH]n1 [Example 235, (R)-4-(1H-benzo[d][1,2,3]triazol-4-yl)-N^1-(pyrrolidin-3-yl)-3-(2H-tetrazol-5-yl)benzene-1,2-disulfonamide]	0.7813	3.125	1.563	0.7813	0.50		1.563	0.44	0.0308							0.105
NCc1nc2c(-c3ccc(S(=O)(=O)NC[C@H](O)CN)c(S(N)(=O)=O)c3-c3nn[nH]n3)cccc2[nH]1 [Example 299, (R)—N1-(3-amino-2-hydroxypropyl)-4-(2-(aminomethyl)-1H-benzo[d]imidazol-4-yl)-3-(2H-tetrazol-5-yl)benzene-1,2-disulfonamide]	0.7813				1.00		0.7813	2.65	0.265		1.563	0.7813	1.563			0.154
NCc1nc2cc(-c3ccc(S(=O)(=O)NC[C@@H](O)CN)c(S(N)(=O)=O)c3-c3nn[nH]n3)ccc2s1 [Example 473, (S)-N1-(3-amino-2-hydroxypropyl)-4-(2-(aminomethyl)benzo[d]thiazol-5-yl)-3-(2H-tetrazol-5-yl)benzene-1,2-disulfonamide]						0.109		0.329	0.136	0.7813	1.563	0.7813	1.563	1.00	0.7813	
NS(=O)(=O)c1c(S(=O)(=O)N[C@H]2CCNC2)ccc(-c2cccc(Nc3ncc[nH]3)c2)c1-c1nn[nH]n1 [Example 472, dihydrochloride]								0.847	0.114	1.563	0.7813	0.7813	0.7813	4.00	0.3906	0.189
